The subject of data set [1] is heart. Kind of data set: Hemodynamic and ECG effects after retro-orbital administration. The following applies: 40 mg/kg retro-orbital. The class given is in vivo, mice. On the procedure: Mice were anaesthetized using 1%-3% isoflurane during Echocardiography to maintain heart rate of 450-500 BPM during imaging. A Vevo 3100 system coupled with a 15-7-MHz linear broadband transducer and a 12-5-MHz phased array transducer was used to perform Echocardiogram analyses. Heart function was examined at baseline (before cardiac surgery) then one-week and 4 weeks post-MI. During acquisition, a heating pad was used to preserve the body temperature at 37° C.; the temperature was continuously assessed by a rectal temperature probe. Using modified parasternal long-axis and short-axis, two-dimensional and Doppler echocardiography was used to assess the LV function and volume in M-mode. Tracings at the mid-papillary level to investigate the systolic and diastolic parameters and Teichholz formula were used to quantify LV function. Echocardiography imaging and analyses were carried out by a blinded investigator. Mice were anesthetized with 2% isoflurane, then placed on the ECG platform. Electrodes were inserted subcutaneously on the two front paws and the left rear paw followed by ECG recording for 2-3 minutes. Once the recording was completed, the data were analyzed using Chart software (PhysioTel).

In data set [2] the test system is macrophages. Kind of data set: Flow cytometry of macrophage phenotypes in the injured heart. The following applies: heart post-MI, relative to Lazm. The class given is in vivo, mice. On the procedure:
Phenotypic cell analysis of macrophages and neutrophils and gene expression analysis was conducted in the heart as previously described ([…] et al. 2018). Briefly, mice were sacrificed, and hearts were rapidly isolated and placed in ice cold PBS (VWR International). Using a razor blade, the heart was minced manually. After mincing, tissue was incubated with a Collagenase B (Roche, Indianapolis, IN) and Dispase II (Roche, Indianapolis, IN) mixture at 37° C. for 30 minutes, with gentle agitation every 5-10 minutes. Tissue digestion ceased using cold staining buffer and the suspension was placed on ice and filtered using a 70 μm cell strainer, followed by centrifugation at 400×g for 5 mins at 4° C. Supernatant was discarded and the pellet was resuspended in 0.3 ml of staining buffer. Individual heart cells were divided into approximately three equal portions depending on cell counting with 10^6 live (trypan blue-negative) cells in each. Two portions were used for cell staining while the remainder was incubated with cell lysis buffer (Life technologies) using multiple aggressive agitations, for 10 minutes and reserved at -80° C. for further gene expression analysis. […] Cells were then washed twice with staining buffer and analyzed by an LSR II (Becton Dickinson) in the University of Kentucky Flow Cytometry Core. […]
(In general: In flow cytometry, cells or beads pass a laser one at a time.)

Data set [3] concerns macrophages. Briefly: Immunohistochemistry of macrophages in the peri-infarct zone. Type of data set: in vivo, mice. On the procedure:
Heart sections (N=4/treatment group) were prepared as described in the previous section. Immunostaining of heart sections was performed on deparaffinized and rehydrated sections as previously described (Al-Darraji, Haydar et al. 2018). Briefly, after deparaffinization and rehydration, sections were incubated with primary antibodies: rabbit anti-mouse IBA1 (Wako), goat anti-mouse CD206 (R and D Systems), and goat anti-mouse IL-1β (R & D Systems) overnight at 4° C., then washed and incubated with secondary antibodies conjugated to Alexa Fluor 488 or 594 (Invitrogen), followed by incubation with DAPI. In the peri-infarct area, 10-15 adjacent zones per section (1-2 sections/animal) were imaged at 40× magnification utilizing Nikon Confocal Microscope A1 in the University of Kentucky Confocal Microscopy facility. Nucleated cells that were antibody-positive were quantified using Cell Counter plugin for Nikon NIS-Elements (version AR 3.2). Findings are presented as total number of positive cells per high power field in the area of interest.

For data set [4], the system named is Ly6C^hi monocytes. Briefly: Flow cytometry of Ly6C^hi monocytes in heart and blood post-MI. The class given is in vivo, mice. The following applies: first day after injury; effect disappears at later timepoints. On the procedure: (§1) Cell phenotype, in addition to gene analyses, of monocytes and neutrophils were investigated in peripheral blood as previously described ([…] et al. 2018). Briefly, blood was collected in tubes with a 1:5 ratio of ethylene diaminetetraacetic acid (EDTA)/citrate-theophylline-adenosinedipyridamole (CTAD) on days 1, 3 and 7 post-MI. Whole blood was centrifuged for 5 minutes at 500×g, and the plasma layer was separated and reserved at -80° C. To lyse red blood cells, the residual cell pellet was incubated with 0.5 ml of diluted red blood lysing buffer (BD pharm lyse) for 10 minutes with mild agitation. To end the lysis process, 0.5 ml of staining buffer (5% goat serum, 0.05% sodium azide in phosphate-buffered saline) was added to the suspension of red blood cell lysed blood. Then, the suspension was centrifuged at 400×g for 5 minutes, and the supernatant was removed. This step was repeated if the red blood cells were still detectable in the cell pellet. White blood cell pellet was washed twice in staining buffer to remove any residual lysis buffer. After supernatant removal, the pellet was resuspended in a pre-determined volume of staining buffer and counted. […] Following incubation, cells were washed twice with staining buffer and analyzed by an LSR II (Becton Dickinson) in the University of Kentucky Flow Cytometry Core. […]

For data set [5], the system named is neutrophils. Kind of data set: Flow cytometry of neutrophils and N1 neutrophils in heart and blood post-MI. The class given is in vivo, mice. Conditions: day 1 post-MI. On the procedure: as §1
For data set [6], the system named is pro- and anti-inflammatory cytokine expression. Kind of data set: RT-PCR of inflammatory and reparative gene expression in heart and blood cells post-MI. The class given is in vivo, mice. On the procedure:
PureLink RNA Mini Kit (ThermoFisher Scientific) was used to isolate total mRNA from heart and blood cells according to manufacturer protocol. Isolated RNA was quantified using NanoDrop 8000 spectrophotometer (Thermofisher). Next, cDNA was generated using SuperScript VILO cDNA synthesis kit (Invitrogen). Using a QuantaStudio 7 Flex real-time thermocycler (Applied Biosystems by life technology), Reverse Transcription-Polymerase Chain Reaction (RT-PCR) was performed to measure the mRNA expression of markers identifying: inducible nitric oxide synthase (iNOS), tumor necrosis factor alpha (TNF-α), monocyte chemotactic protein-1 (MCP-1), transforming growth factor beta (TGF-β), interleukin-1 beta (IL-1β), interleukin-6 (IL-6), interleukin-4 (IL-4), chitinase-like3 Chil3 (YM1), interleukin-10 (IL10), arginase-1 (ARG-1), and Peroxisome proliferator-activated receptor gamma (PPARg). We used the comparative Ct method for relative estimation of mRNA expression which was normalized to 18s (a housekeeping gene). […]

For data set [7], the system named is cardiac cells. Kind of data set: TUNEL and caspase-3 staining of apoptosis in the peri-infarct region. Type of data set: in vivo, mice. The following applies: peri-infarct regions, 3 days post-MI, compared to vehicle control. On the procedure:
Cell apoptosis was examined on deparaffinized and rehydrated sections from mice (N=4/treatment group) sacrificed at day 3, as previously described ([…] et al. 2018). TUNEL and caspase-3 staining was performed in the Biospecimen Procurement and Translational Pathology Shared Resource Facility (BPTP SRF) at the University of Kentucky. Nucleated cells that stained positive were estimated. Quantification was performed using Cell Counter plugin for ImageJ (version 1.51d). Findings are presented as total positive cells per high power field in the peri-infract region. All measurements were obtained in the peri-infarcted areas only and analyzed by blinded observer.

For data set [8], the system named is infarcted heart. Briefly: Masson's trichrome scar size 30 days post-MI. Type of data set: in vivo, mice. The following applies: compared to controls. On the procedure: Histological analysis was performed on deparaffinized and rehydrated sections as previously described (Al-Darraji, Haydar et al. 2018). Briefly, 30 day post-MI mice (N=6-10/treatment group) were sacrificed under isoflurane anesthesia and hearts were isolated. Hearts were perfused with PBS (VWR International) then by 10% buffered formalin (VWR International) at 75 mmHg. Perfused hearts were placed in 10% neutral buffered formalin (VWR) overnight at room temperature, then sectioned into 2-mm cross-sections starting at the level of coronary ligation then imbedded in paraffin and sectioned into 4-μm sections. Sections were stained with Masson's trichrome to evaluate scar size as previously described (Al-Darraji, Haydar et al. 2018). Digital images of stained sections were acquired, and areas of interest were assessed using NIH ImageJ […] software. The LV area, LV cavity area, and infarct area were measured as previously described (Al-Darraji, Haydar et al. 2018). Scar size was presented as a percentage of the total LV […].

For data set [9] the following is noted: cited from earlier work.
Data set [10] concerns the target IL-1β (Homo sapiens, UniProt P01584). Conditions: cited from earlier work.

Turning to `CC[C@H]1OC(=O)[C@H](C)[C@@H](O[C@H]2C[C@@](C)(OC)[C@@H](O)[C@H](C)O2)[C@H](C)[C@@H](O[C@@H]2O[C@H](C)C[C@H](N(C)C)[C@H]2O)[C@](C)(O)C[C@@H](C)CN(C)[C@H](C)[C@@H](O)[C@]1(C)O` [free AZM, azithromycin], the QT interval result in data set [1] is “prolonged”. In data set [1] (compared with baseline), the RR entry is given as “remarkably reduces”, the cardiac output entry is given as “remarkably reduces”, the ejection fraction entry is reported as “remarkably reduces” and the heart rate entry is recorded as “remarkably reduces”. The “immunomodulatory changes of heart macrophages (FACS)” value in data set [2] is “Less powerful immunomodulatory changes”. For the same compound, the “reparative macrophages (CD206+) in peri-infarct zone” value in [3] (day 3 post-MI, compared to control groups) is on record as “significant increase”. The “expression of IL-1β in macrophages (IBA1+IL-1β+)” value in [3] (peri-infarct zones, 3 days post-MI, compared to controls) is reported as “marked reduction”. Besides, the “Ly6C^hi (pro-inflammatory) monocytes in the heart” value in [4] was “significantly decrease in the first day after injury”. The “neutrophil counts in the heart” value in data set [5] is given as “did not see significant changes”. Moreover, the “expression of anti-inflammatory cytokines and reparative macrophage markers (TGF-β, IL-10, IL-4, ARG, Fizz1, PPARγ, YM1) in cardiac tissue” value in data set [6] (consistent effects up to day 7) is recorded as “significantly upregulated”. Besides, the “mRNA levels of iNOS and pro-inflammatory cytokines (MCP-1, TNF-α, IL-6, IL-1β) in cardiac tissue” value in data set [6] (particularly days 1 and 3 post-infarct) is recorded as “substantially downregulated”. In [7], the “TUNEL positive cells (late apoptosis)” value is listed as “remarkable reduction” and the “caspase-3 positive cells (early apoptosis)” value is “remarkable reduction”. Also, the “scar size (percentage of LV area)” value in data set [8] is reported as “significant reduction”. Also, the “mortality during drug administration” value (40 mg/kg IV, post-MI) was “occurs during the drug administration due to severe changes in cardiac conduction and hemodynamic parameters”. Also, the survival entry (35 days post-MI, vs vehicle-treated mice) was “marked improvement in survival”. Moreover, in [9] (160 mg/kg/day, orally, initiated 3 days pre-MI), the post-MI cardiac recovery result is given as “enhances post-MI cardiac recovery”. Also, the neutrophil counts result in [9] (first study, mice receiving AZM) is listed as “substantially decreased”.

With “canakinumab: monoclonal antibody targeting IL-1β”, the cardiovascular events reoccurrence entry in [10] is given as “significantly decreases cardiovascular events reoccurrence”.
